Values of other authors in US9192588B2, “Method for producing a zeaxanthin-enriched chicken egg” (JX NIPPON OIL & ENERGY CORPORATION, priority 2011, dated 2015).
Where two headings read alike, the source gives them in different places.

Conditions: human
[1] = twice the initial dose for further 6 months

Question: Which “blood zeaxanthin concentration after intake” value (12.6 mg every day for 6 months) does the source give for `CC1=C(/C=C/C(C)=C/C=C/C(C)=C/C=C/C=C(C)/C=C/C=C(C)/C=C/C2=C(C)C[C@@H](O)CC2(C)C)C(C)(C)C[C@H](O)C1` [chemically synthesized zeaxanthin, zeaxanthin] here?
Answer: 0.85 µM

Question: And the “proportion of the increase to the intake” value (12.6 mg every day for 6 months)?
Answer: 0.06 μM/(mg/Day)

Question: And the “initial blood zeaxanthin concentration” value (before intake)?
Answer: 0.04 µM

Question: And the “blood zeaxanthin concentration after intake” value [1]?
Answer: 1.09 µM

Question: What about the “proportion of the increase to the intake” value [1] of the same molecule?
Answer: 0.01 μM/(mg/Day)
